Structures can show the parent of a compound that is named as a salt.

One series deals with Hepatotoxicity. Nature of the series: Human drug-induced liver injury (DILI) modelling dataset from Ekins et al.
Settings: not given
For `CCOc1nc2cccc(C(=O)O)c2n1Cc1ccc(-c2ccccc2-c2nnn[nH]2)cc1`, the Hepatotoxicity result is listed as “DILI negative (test set)”. The same measure, in the same setting: in the case of `CCCc1nc2c(C)cc(-c3nc4ccccc4n3C)cc2n1Cc1ccc(-c2ccccc2C(=O)O)cc1` it was “DILI negative (training set)”. With `CCCCC(=O)N(Cc1ccc(-c2ccccc2-c2nnn[nH]2)cc1)[C@H](C(=O)O)C(C)C`, the Hepatotoxicity result is reported as “DILI negative (test set)”. Regarding `CC(C)(C)NCC(O)c1cc(O)cc(O)c1.O=S(=O)(O)O` (stereo unspecified), the Hepatotoxicity entry is “DILI positive (test set)”. Turning to `COc1cccc(OC)c1C(=O)N[C@@H]1C(=O)N2[C@@H]1SC(C)(C)[C@@H]2C(=O)[O-].[Na+]`, the Hepatotoxicity entry was “DILI positive (training set)”.

Take `CN[C@@H]1[C@H](O)[C@H](NC)[C@H]2O[C@@]3(O)C(=O)C[C@@H](C)O[C@H]3O[C@@H]2[C@H]1O.Cl`: the Hepatotoxicity entry was “DILI positive (test set)”. On the same count and under the same terms, in the case of `CCO.C[C@H]1c2cccc(O)c2C(=O)C2=C(O)[C@]3(O)C(=O)C(C(N)=O)=C(O)[C@@H](N(C)C)[C@@H]3[C@@H](O)[C@@H]21.Cl.O` it was “DILI positive (training set)”; in that of `CCN(CC)CCNC(=O)c1cc(Cl)c(N)cc1OC.Cl`, “DILI positive (training set)”. With `CNS(=O)(=O)Cc1ccc2[nH]cc(CCN(C)C)c2c1`, the Hepatotoxicity result is on record as “DILI negative (training set)”. `CN(C)CCN(Cc1cccs1)c1ccccn1`: the Hepatotoxicity result is “DILI positive (test set)”. `CCCCCOC(=O)c1ccccc1C(=O)OCCCCC`: the Hepatotoxicity result is “DILI positive (test set)”. On the same count and under the same terms, in the case of `CC1=C(CC(=O)O)c2cc(F)ccc2/C1=C\c1ccc([S+](C)[O-])cc1` (stereo unspecified) it was “DILI positive (training set)”; in that of `CCOC(=O)[C@H](CCc1ccccc1)N[C@@H](C)C(=O)N1Cc2ccccc2C[C@H]1C(=O)O`, “DILI positive (training set)”; in that of `S=C=Nc1ccc2ccccc2c1`, “DILI negative (test set)”. Still for that read-out and setting: in the case of `CO/N=C(/C(=O)N[C@@H]1C(=O)N2C(C(=O)[O-])=C(CSc3nc(=O)c(O)nn3C)CS[C@H]12)c1csc(N)n1.[Na+]` it was “DILI positive (test set)”; in that of `O=C1NC(=O)C(O)(O)C(=O)N1`, “DILI negative (training set)”; in that of `Oc1ccccc1Br`, “DILI positive (test set)”.

For `O=C(O)COc1ccc(C(=O)c2cccs2)c(Cl)c1Cl`, the Hepatotoxicity result is recorded as “DILI positive (test set)”. Regarding `O=C1NCN(c2ccccc2)C12CCN(CCCC(c1ccc(F)cc1)c1ccc(F)cc1)CC2`, the Hepatotoxicity result is listed as “DILI positive (test set)”. The same measure, in the same setting: to `C[n+]1ccc(-c2cc[n+](C)cc2)cc1` belongs “DILI positive (test set)”.

Turning to `Nc1ccc(Cc2ccc(N)cc2)cc1`, the Hepatotoxicity entry was “DILI positive (test set)”. The same measure, in the same setting: in the case of `C=C1CC[C@@]2(O)[C@H]3Cc4ccc(O)c5c4[C@@]2(CCN3CC2CC2)[C@H]1O5` it was “DILI negative (training set)”; in that of `ClCCCl` [1,2-DICHLOROETHANE], “DILI positive (test set)”. Still for that read-out and setting: to `Clc1ccc(Cl)cc1` [1,4-DICHLOROBENZENE] belongs “DILI positive (test set)”; to `FCCCCCF` [1,5-DIFLUOROPENTANE], “DILI positive (test set)”; to `S=C=Nc1cccc2ccccc12` [1-NAPHTHYLISOTHIOCYANATE], “DILI positive (test set)”.

In the case of `O=[N+]([O-])c1ccc(O)c([N+](=O)[O-])c1` [2,4-DINITROPHENOL], the Hepatotoxicity entry is “DILI positive (test set)”. As to `Nc1ccc(O)cc1` [4-AMINOPHENOL], the Hepatotoxicity result is “DILI negative (test set)”. On to `Nc1nc(NC2CC2)c2ncn([C@H]3C=C[C@@H](CO)C3)c2n1` [ABACAVIR], for which the Hepatotoxicity entry is “DILI positive (test set)”. Same read-out and setting: to `CC(=O)CC(c1ccc([N+](=O)[O-])cc1)c1c(O)c2ccccc2oc1=O` (stereo unspecified) [ACENOCOUMAROL] belongs “DILI positive (test set)”. `CC(=O)Nc1ccc(O)cc1` [ACETAMINOPHEN]: the Hepatotoxicity entry is listed as “DILI positive (training set)”. As for `CC(=O)Nc1nnc(S(N)(=O)=O)s1` [ACETAZOLAMIDE], the Hepatotoxicity result was “DILI positive (training set)”. Take `CC(=O)c1ccc(S(=O)(=O)NC(=O)NC2CCCCC2)cc1` [ACETOHEXAMIDE]: the Hepatotoxicity result is recorded as “DILI positive (training set)”.

Turning to `CC(=O)N[C@@H](CS)C(=O)O` [ACETYLCYSTEINE], the Hepatotoxicity entry was “DILI negative (test set)”.

As to `COc1cc(C)c(/C=C/C(C)=C/C=C/C(C)=C/C(=O)O)c(C)c1C` [ACITRETIN], the Hepatotoxicity result was “DILI positive (training set)”.

Consider `N[C@H](C(=O)O)[C@@H]1CC(Cl)=NO1` [ACIVICIN], for which the Hepatotoxicity entry is “DILI negative (training set)”. On the same count and under the same terms, to `CC[C@@]1(O)C[C@H](O[C@H]2C[C@H](N(C)C)[C@H](O[C@H]3C[C@H](O)[C@H](O[C@H]4CCC(=O)[C@H](C)O4)[C@H](C)O3)[C@H](C)O2)c2c(cc3c(c2O)C(=O)c2c(O)cccc2C3=O)[C@H]1C(=O)OC.Cl` [ACLARUBICIN HYDROCHLORIDE] belongs “DILI negative (test set)”; to `Nc1ncnc2c1ncn2[C@@H]1O[C@H](CO)[C@@H](O)[C@H]1O` [ADENOSINE], “DILI negative (training set)”.

In the case of `COc1cc2c(c3oc(=O)c4c(c13)CCC4=O)[C@@H]1C=CO[C@@H]1O2` [AFLATOXIN], the Hepatotoxicity entry is reported as “DILI positive (test set)”. Same read-out and setting: in the case of `CCCSc1ccc2nc(NC(=O)OC)[nH]c2c1` [ALBENDAZOLE] it was “DILI positive (training set)”; in that of `Oc1ncnc2[nH]ncc12` [ALLOPURINOL], “DILI positive (training set)”.

With `C=CCO` [ALLYL ALCOHOL], the Hepatotoxicity entry is listed as “DILI positive (test set)”. On to `C=CCOC=O` [ALLYL FORMATE], for which the Hepatotoxicity result was “DILI positive (test set)”. As to `CCCN(CCC)C(=O)Cc1c(-c2ccc(Cl)cc2)nc2ccc(Cl)cn12` [ALPIDEM], the Hepatotoxicity entry is “DILI positive (test set)”. Still for that read-out and setting: in the case of `Cl.NC12CC3CC(CC(C3)C1)C2` [AMANTADINE HYDROCHLORIDE] it was “DILI negative (training set)”; in that of `Cl.N=C(N)NC(=O)c1nc(Cl)c(N)nc1N.O.O` [AMILORIDE HYDROCHLORIDE], “DILI negative (training set)”. On the same count and under the same terms, in the case of `Cl.O=C(O)CCCCCCNC1c2ccccc2CCc2ccccc21` [AMINEPTINE HYDROCHLORIDE] it was “DILI positive (test set)”; in that of `Nc1ccc(C(=O)[O-])cc1.[K+]` [AMINOBENZOATE POTASSIUM], “DILI negative (training set)”; in that of `NCCCCCC(=O)O` [AMINOCAPROIC ACID], “DILI negative (test set)”.

Consider `CCC1(c2ccc(N)cc2)CCC(=O)NC1=O` (stereo unspecified) [AMINOGLUTETHIMIDE], for which the Hepatotoxicity entry is “DILI negative (training set)”. Consider `Nc1ccc(C(=O)O)c(O)c1` [AMINOSALICYLIC ACID], for which the Hepatotoxicity entry is given as “DILI positive (training set)”. With `CN(C)CCC=C1c2ccccc2CCc2ccccc21.Cl` [AMITRIPTYLINE HYDROCHLORIDE], the Hepatotoxicity result is reported as “DILI negative (training set)”. For the molecule `Cl.N` [AMMONIUM CHLORIDE], the Hepatotoxicity result was “DILI negative (training set)”. The same measure, in the same setting: in the case of `Clc1ccc2c(c1)C(N1CCNCC1)=Nc1ccccc1O2` [AMOXAPINE] it was “DILI negative (training set)”. In the case of `CC1(C)S[C@@H]2[C@H](NC(=O)[C@H](N)c3ccc(O)cc3)C(=O)N2[C@H]1C(=O)O` [AMOXICILLIN], the Hepatotoxicity result is given as “DILI negative (test set)”. Turning to `C[C@@H]1[C@H](O)[C@@H](C)/C=C/C=C/C=C/C=C/C=C/C=C/C=C/[C@H](O[C@@H]2O[C@H](C)[C@@H](O)[C@H](N)[C@@H]2O)C[C@@H]2O[C@](O)(C[C@@H](O)C[C@@H](O)[C@H](O)CC[C@@H](O)C[C@@H](O)CC(=O)O[C@H]1C)C[C@H](O)[C@H]2C(=O)O` [AMPHOTERICIN B], the Hepatotoxicity result is “DILI negative (test set)”. On the same count and under the same terms, to `CC1(C)S[C@@H]2[C@H](NC(=O)[C@H](N)c3ccccc3)C(=O)N2[C@H]1C(=O)[O-].[Na+]` [AMPICILLIN SODIUM] belongs “DILI negative (test set)”.

With `COc1cc(NS(C)(=O)=O)ccc1Nc1c2ccccc2nc2ccccc12.Cl` [AMSACRINE HYDROCHLORIDE], the Hepatotoxicity entry is “DILI positive (training set)”.

Consider `CCOC(=O)C1(c2ccccc2)CCN(CCc2ccc(N)cc2)CC1.Cl` [ANILERIDINE HYDROCHLORIDE], for which the Hepatotoxicity entry is “DILI negative (test set)”. Same read-out and setting: to `N=C(N)NCCC[C@H](N)C(=O)O` [ARGININE] belongs “DILI negative (training set)”.

With `O=[As][As+](=O)[O-]` (stereo unspecified) [ARSENIC TRIOXIDE], the Hepatotoxicity entry was “DILI positive (test set)”. As for `O=C1O[C@H]([C@@H](O)CO)C(O)=C1O` [ASCORBIC ACID], the Hepatotoxicity entry is “DILI negative (training set)”.

For `CC(=O)Oc1ccccc1C(=O)O` [ASPIRIN], the Hepatotoxicity entry is given as “DILI negative (training set)”. As to `COc1ccc(CCN2CCC(Nc3nc4ccccc4n3Cc3ccc(F)cc3)CC2)cc1` [ASTEMIZOLE], the Hepatotoxicity result is “DILI negative (training set)”.

As for `CNCC[C@@H](Oc1ccccc1C)c1ccccc1` [ATOMOXETINE], the Hepatotoxicity result was “DILI positive (test set)”.

Still in this series, the particulars now being: Liver.
Take `Cl.NCCNCCNCCN`: the Hepatotoxicity result is reported as “DILI positive (test set)”.

`CCN(CC)Cc1cc(Nc2ccnc3cc(Cl)ccc23)ccc1O.Cl.Cl.Cl`: the Hepatotoxicity entry was “DILI positive (test set)”. Still for that read-out and setting: to `N#CC(C#N)=NNc1ccc(OC(F)(F)F)cc1` belongs “DILI positive (training set)”; to `CC(=O)OCC[N+](C)(C)C.[Cl-]` [ACETYLCHOLINE CHLORIDE], “DILI negative (training set)”. As to `CCCCc1oc2ccccc2c1C(=O)c1cc(I)c(OCCN(CC)CC)c(I)c1` [AMIODARONE], the Hepatotoxicity result is “DILI positive (training set)”. The same measure, in the same setting: in the case of `CC(C)NCC(O)COc1ccc(CC(N)=O)cc1` (stereo unspecified) [ATENOLOL] it was “DILI negative (training set)”.

(Values after ChEMBL document CHEMBL1697723, “A predictive ligand-based Bayesian model for human drug-induced liver injury” (Drug Metab Dispos, 2010).)
